Data as given in US20240209028A1, “CNP COMPOUNDS” (priority 2022, published 2024).
Starred links: 1 amine or outer side, 2 acyl side, 3 side chain; linkers in the order of their positions; H or OH if unused. Positions of bridges follow the written chain, without caps; N, C: chain ends. Residues, ends and D or L forms follow the SMILES beside them. *: point of attachment. C18 diacid = O=C(O)CCCCCCCCCCCCCCCCC(=O)*; γGlu = O=C(O)[C@H](CCC(=O)[*:2])N[*:1]; AEEA = NCCOCCOCC(=O)O

Target: T1, human natriuretic peptide receptor 2 (hNPR2) (Homo sapiens, UniProt P20594)
T1 construct: expressed in transfected cells; host or cells: HEK293 (ATCC CRL-1573), clone 35, co-transfected with pGloSensor-42F
T1 sequence (P20594 23-1047): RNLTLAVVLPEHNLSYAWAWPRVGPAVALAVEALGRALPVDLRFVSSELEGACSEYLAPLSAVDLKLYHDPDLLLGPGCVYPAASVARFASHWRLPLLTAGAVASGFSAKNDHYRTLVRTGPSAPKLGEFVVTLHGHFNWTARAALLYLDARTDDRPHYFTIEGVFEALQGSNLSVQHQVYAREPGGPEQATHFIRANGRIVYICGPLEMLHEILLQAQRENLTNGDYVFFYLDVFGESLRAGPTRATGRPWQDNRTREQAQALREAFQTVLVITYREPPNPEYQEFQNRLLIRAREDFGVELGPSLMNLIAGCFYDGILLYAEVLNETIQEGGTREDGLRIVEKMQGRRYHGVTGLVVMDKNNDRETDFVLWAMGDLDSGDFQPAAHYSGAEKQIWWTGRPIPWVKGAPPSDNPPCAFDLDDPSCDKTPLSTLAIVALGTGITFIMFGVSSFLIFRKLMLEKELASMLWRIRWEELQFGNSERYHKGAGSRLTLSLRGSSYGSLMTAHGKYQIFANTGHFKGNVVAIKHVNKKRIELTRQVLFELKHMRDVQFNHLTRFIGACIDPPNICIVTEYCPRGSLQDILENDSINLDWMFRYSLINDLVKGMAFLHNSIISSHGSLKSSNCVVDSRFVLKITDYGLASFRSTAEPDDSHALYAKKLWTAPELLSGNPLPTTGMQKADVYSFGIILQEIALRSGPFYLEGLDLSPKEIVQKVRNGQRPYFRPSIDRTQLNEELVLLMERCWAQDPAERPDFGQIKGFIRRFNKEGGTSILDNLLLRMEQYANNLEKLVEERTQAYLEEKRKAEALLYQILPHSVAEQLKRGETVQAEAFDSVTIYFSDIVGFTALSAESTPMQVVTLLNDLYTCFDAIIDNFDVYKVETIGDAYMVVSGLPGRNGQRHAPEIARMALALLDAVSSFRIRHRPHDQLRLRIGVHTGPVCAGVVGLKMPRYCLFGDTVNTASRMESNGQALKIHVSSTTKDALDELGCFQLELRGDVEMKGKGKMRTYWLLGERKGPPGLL
Experiment: In vitro hNPR2 activity assay (cGMP GloSensor reporter, HEK293)
Format: cell-based
Details: for EC50: 0% HSA, HEK293-hNPR2/GloSensor cells; for hNPR2 0% HSA. [EC50% rel CNP]: potency relative to CNP22 (0065)
How it was run: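 Potency is the EC50 from a four-parameter logistic fit, also expressed relative to the in-plate CNP22 control (×100), with at least two replicates. Compounds (ten concentrations, […], HSA-free diluent with 1% OVA, 0.01% Tween20) were incubated 30 min at 37 °C on HEK293 cells co-expressing hNPR2 and a GloSensor cGMP luciferase. Luminescence detected with Bright-Glo.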

| SMILES | EC50 [nM] | hNPR2 0% HSA. [EC50% rel CNP] [%] |
| --- | --- | --- |
| CC[C@H](C)[C@@H]1NC(=O)[C@H](CCCNC(=N)N)NC(=O)[C@H](CC(=O)O)NC(=O)[C@H](CC(C)C)NC(=O)[C@H](CCCCN)NC(=O)[C@H](CC(C)C)NC(=O)CNC(=O)[C@H](Cc2ccccc2)NC(=O)[C@@H](NC(=O)CNC(=O)[C@H](CCCCN)NC(=O)[C@H](CO)NC(=O)[C@H](CC(C)C)NC(=O)CNC(=O)[C@H](Cc2c[nH]cn2)NC(=O)[C@H](Cc2c[nH]cn2)NC(=O)[C@H](CCC(N)=O)NC(=O)[C@H](C)NC(=O)CNC(=O)[C@H](Cc2c[nH]cn2)NC(=O)[C@H](Cc2ccc(O)cc2)NC(=O)COCCOCCNC(=O)COCCOCCNC(=O)CC[C@H](NC(=O)CCCCCCCCCCCCCCCCC(=O)O)C(=O)O)CSSC[C@@H](C(=O)O)NC(=O)CNC(=O)[C@H](CC(C)C)NC(=O)CNC(=O)[C@H](CO)NC(=O)[C@H](CC(C)C)NC(=O)[C@H](CO)NC(=O)CNC1=O [compound 1345] ({C18 diacid-γGlu-AEEA-AEEA}-YHGAQHHGLSKGCFGLKLDRIGSLSGLGC-OH; disulfide 13-29) | 0.38 | 21.1 |
| CC[C@H](C)[C@@H]1NC(=O)[C@H](CCCNC(=N)N)NC(=O)[C@H](CC(=O)O)NC(=O)[C@H](CC(C)C)NC(=O)[C@@H]2CCCN2C(=O)[C@H](CC(C)C)NC(=O)CNC(=O)[C@H](Cc2ccccc2)NC(=O)[C@@H](NC(=O)CNC(=O)[C@H](CCCCN)NC(=O)[C@H](CO)NC(=O)[C@H](CC(C)C)NC(=O)CNC(=O)[C@H](Cc2c[nH]cn2)NC(=O)[C@H](Cc2c[nH]cn2)NC(=O)[C@H](CCC(N)=O)NC(=O)[C@H](C)NC(=O)CNC(=O)[C@H](Cc2c[nH]cn2)NC(=O)[C@H](Cc2ccc(O)cc2)NC(=O)COCCOCCNC(=O)COCCOCCNC(=O)CC[C@H](NC(=O)CCCCCCCCCCCCCCCCC(=O)O)C(=O)O)CSSC[C@@H](C(=O)O)NC(=O)CNC(=O)[C@H](CC(C)C)NC(=O)CNC(=O)[C@H](CO)NC(=O)[C@H](CC(C)C)NC(=O)[C@H](CO)NC(=O)CNC1=O [compound 1346] ({C18 diacid-γGlu-AEEA-AEEA}-YHGAQHHGLSKGCFGLPLDRIGSLSGLGC-OH; disulfide 13-29; C-terminus assumed) | – | 17.0 |
| CC[C@H](C)[C@@H]1NC(=O)[C@H](CCCNC(=N)N)NC(=O)[C@H](CC(=O)O)NC(=O)[C@H](CC(C)C)NC(=O)[C@@H]2CCCN2C(=O)[C@H](CC(C)C)NC(=O)CNC(=O)[C@H](Cc2ccccc2)NC(=O)[C@@H](NC(=O)CNC(=O)[C@H](Cc2c[nH]cn2)NC(=O)[C@H](CO)NC(=O)[C@H](CC(C)C)NC(=O)CNC(=O)[C@H](CCCCN)NC(=O)[C@H](CCCCN)NC(=O)[C@H](CCC(N)=O)NC(=O)[C@H](C)NC(=O)CNC(=O)COCCOCCNC(=O)COCCOCCNC(=O)CC[C@H](NC(=O)CCCCCCCCCCCCCCCCC(=O)O)C(=O)O)CSSC[C@@H](C(=O)O)NC(=O)CNC(=O)[C@H](CC(C)C)NC(=O)CNC(=O)[C@H](CO)NC(=O)[C@H](CC(C)C)NC(=O)[C@H](CO)NC(=O)CNC1=O [compound 1347] ({C18 diacid-γGlu-AEEA-AEEA}-GAQKKGLSHGCFGLPLDRIGSLSGLGC-OH; disulfide 11-27; C-terminus assumed) | – | 15.4 |
| CC[C@H](C)[C@@H]1NC(=O)[C@H](CCCNC(=N)N)NC(=O)[C@H](CC(=O)O)NC(=O)[C@H](CC(C)C)NC(=O)[C@@H]2CCCN2C(=O)[C@H](CC(C)C)NC(=O)CNC(=O)[C@H](Cc2ccccc2)NC(=O)[C@@H](NC(=O)CNC(=O)[C@H](CO)NC(=O)[C@H](Cc2c[nH]cn2)NC(=O)[C@H](CC(C)C)NC(=O)CNC(=O)[C@H](CCCCN)NC(=O)[C@H](CCCCN)NC(=O)[C@H](CCC(N)=O)NC(=O)[C@H](C)NC(=O)CNC(=O)COCCOCCNC(=O)COCCOCCNC(=O)CC[C@H](NC(=O)CCCCCCCCCCCCCCCCC(=O)O)C(=O)O)CSSC[C@@H](C(=O)O)NC(=O)CNC(=O)[C@H](CC(C)C)NC(=O)CNC(=O)[C@H](CO)NC(=O)[C@H](CC(C)C)NC(=O)[C@H](CO)NC(=O)CNC1=O [compound 1348] ({C18 diacid-γGlu-AEEA-AEEA}-GAQKKGLHSGCFGLPLDRIGSLSGLGC-OH; disulfide 11-27) | – | 31.4 |
| CC[C@H](C)[C@@H]1NC(=O)[C@H](CCCNC(=N)N)NC(=O)[C@H](CC(=O)O)NC(=O)[C@H](CC(C)C)NC(=O)[C@@H]2CCCN2C(=O)[C@H](CC(C)C)NC(=O)CNC(=O)[C@H](Cc2ccccc2)NC(=O)[C@@H](NC(=O)CNC(=O)[C@H](CO)NC(=O)[C@H](CO)NC(=O)[C@H](CC(C)C)NC(=O)CNC(=O)[C@@H](NC(=O)[C@H](Cc2c[nH]cn2)NC(=O)[C@H](CCC(N)=O)NC(=O)[C@H](C)NC(=O)CNC(=O)[C@H](Cc2c[nH]cn2)NC(=O)[C@H](Cc2ccc(O)cc2)NC(=O)[C@H](CCCCN)NC(=O)[C@H](CCCNC(=N)N)NC(=O)[C@H](C)NC(=O)COCCOCCNC(=O)COCCOCCNC(=O)CC[C@H](NC(=O)CCCCCCCCCCCCCCCCC(=O)O)C(=O)O)[C@@H](C)O)CSSC[C@@H](C(=O)O)NC(=O)CNC(=O)[C@H](CC(C)C)NC(=O)CNC(=O)[C@H](CO)NC(=O)[C@H](CC(C)C)NC(=O)[C@H](CO)NC(=O)CNC1=O [compound 1350] ({C18 diacid-γGlu-AEEA-AEEA}-ARKYHGAQHTGLSSGCFGLPLDRIGSLSGLGC-OH; disulfide 16-32) | – | 41.0 |
| CC[C@H](C)[C@@H]1NC(=O)[C@H](CCCNC(=N)N)NC(=O)[C@H](CC(=O)O)NC(=O)[C@H](CC(C)C)NC(=O)[C@@H]2CCCN2C(=O)[C@H](CC(C)C)NC(=O)CNC(=O)[C@H](Cc2ccccc2)NC(=O)[C@@H](NC(=O)CNC(=O)[C@H](CCCCN)NC(=O)[C@H](CO)NC(=O)[C@H](CC(C)C)NC(=O)CNC(=O)[C@H](CCCCN)NC(=O)[C@H](CCCCN)NC(=O)[C@H](CCC(N)=O)NC(=O)[C@H](C)NC(=O)CNC(=O)[C@H](Cc2c[nH]cn2)NC(=O)[C@H](CCC(=O)O)NC(=O)COCCOCCNC(=O)COCCOCCNC(=O)COCCOCCNC(=O)CC[C@H](NC(=O)CCCCCCCCCCCCCCCCC(=O)O)C(=O)O)CSSC[C@@H](C(=O)O)NC(=O)CNC(=O)[C@H](CC(C)C)NC(=O)CNC(=O)[C@H](CO)NC(=O)[C@H](CC(C)C)NC(=O)[C@H](CO)NC(=O)CNC1=O [compound 1353] ({C18 diacid-γGlu-AEEA-AEEA-AEEA}-EHGAQKKGLSKGCFGLPLDRIGSLSGLGC-OH; disulfide 13-29; C-terminus assumed) | – | 9.0 |
| CC[C@H](C)[C@@H]1NC(=O)[C@H](CCCNC(=N)N)NC(=O)[C@H](CC(=O)O)NC(=O)[C@H](CC(C)C)NC(=O)[C@@H]2CCCN2C(=O)[C@H](CC(C)C)NC(=O)CNC(=O)[C@H](Cc2ccccc2)NC(=O)[C@@H](NC(=O)CNC(=O)[C@H](CO)NC(=O)[C@H](CO)NC(=O)[C@H](CC(C)C)NC(=O)CNC(=O)[C@H](CCCCN)NC(=O)[C@H](CCCCN)NC(=O)[C@H](CCC(N)=O)NC(=O)[C@H](C)NC(=O)CNC(=O)[C@H](CCCCN)NC(=O)[C@H](Cc2ccc(O)cc2)NC(=O)COCCOCCNC(=O)COCCOCCNC(=O)COCCOCCNC(=O)CC[C@H](NC(=O)CCCCCCCCCCCCCCCCC(=O)O)C(=O)O)CSSC[C@@H](C(=O)O)NC(=O)CNC(=O)[C@H](CC(C)C)NC(=O)CNC(=O)[C@H](CO)NC(=O)[C@H](CC(C)C)NC(=O)[C@H](CO)NC(=O)CNC1=O [compound 1355] ({C18 diacid-γGlu-AEEA-AEEA-AEEA}-YKGAQKKGLSSGCFGLPLDRIGSLSGLGC-OH; disulfide 13-29) | – | 28.2 |
| CC[C@H](C)[C@@H]1NC(=O)[C@H](CCCNC(=N)N)NC(=O)[C@H](CC(=O)O)NC(=O)[C@H](CC(C)C)NC(=O)[C@H](CCCCN)NC(=O)[C@H](CC(C)C)NC(=O)CNC(=O)[C@H](Cc2ccccc2)NC(=O)[C@@H](NC(=O)CNC(=O)[C@H](CCCCN)NC(=O)[C@H](CO)NC(=O)[C@H](CC(C)C)NC(=O)CNC(=O)[C@H](CCCCN)NC(=O)[C@H](CCCCN)NC(=O)[C@H](CCC(N)=O)NC(=O)[C@H](C)NC(=O)CNC(=O)[C@H](Cc2c[nH]cn2)NC(=O)[C@H](CCC(=O)O)NC(=O)COCCOCCNC(=O)COCCOCCNC(=O)COCCOCCNC(=O)CC[C@H](NC(=O)CC[C@H](NC(=O)CCCCCCCCCCCCCCCCC(=O)O)C(=O)O)C(=O)O)CSSC[C@@H](C(=O)O)NC(=O)CNC(=O)[C@H](CC(C)C)NC(=O)CNC(=O)[C@H](CO)NC(=O)[C@H](CC(C)C)NC(=O)[C@H](CO)NC(=O)CNC1=O [compound 1357] | 2.53 | 4.3 |
